Our source for the IC50 values is BindingDB's records for patent WO2022076495 (MERCK SHARP & DOHME CORP., 2022).

SMILES strings stand for the structures. Several values for one entry are separate records, joined by “and”; a condition that tells them apart may be missing. Identical values can stand only once.

For this assay, the target named is T1, Diacylglycerol O-acyltransferase 2 (Homo sapiens, UniProt Q96PD7).
T1 sequence (Q96PD7 whole entry): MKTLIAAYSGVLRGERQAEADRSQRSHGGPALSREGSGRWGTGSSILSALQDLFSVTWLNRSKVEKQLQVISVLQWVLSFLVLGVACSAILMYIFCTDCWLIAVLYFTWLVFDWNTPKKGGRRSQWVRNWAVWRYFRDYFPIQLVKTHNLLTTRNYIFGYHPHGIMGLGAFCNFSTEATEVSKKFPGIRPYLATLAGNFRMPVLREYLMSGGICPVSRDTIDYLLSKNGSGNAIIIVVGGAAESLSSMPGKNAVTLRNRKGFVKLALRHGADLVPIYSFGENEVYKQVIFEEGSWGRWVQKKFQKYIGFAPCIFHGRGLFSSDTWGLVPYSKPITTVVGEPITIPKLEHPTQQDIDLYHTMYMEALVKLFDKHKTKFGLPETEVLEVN
Briefly: DGAT2 enzymatic activity assay. As for the experimental part: DGAT2 activity was determined by measuring the amount of enzymatic product 13Ci8-triolein (13C-l,2,3-Tri(cis-9-octadecenoyl)glycerol) using the membrane prep mentioned above. The assay was carried out in ABgene 384-well assay plates in a final volume of 25 pL at rt. The assay mixture contained the following: assay buffer (100 mM Tris Cl, pH 7.0, 20 mM MgCl2, 5% ethanol), 25 pM of di olein, 5 μM of 13C oleoyl-CoA and 8 ng/pL of DGAT2 membrane.
With `CC(C)n1c(=O)n(-c2cccc(OC(F)(F)C(F)(F)F)c2)c2ccc(C(=O)NC3(C)CS(=O)(=O)C3)cc21` [WO2022076495, EXAMPLE 7], the IC50 (in general, the midpoint of a concentration-inhibition curve) came out at 0.016 µM.
Take `CC(C)n1c(=O)n(-c2cccc(OC(F)F)c2)c2ccc(C(=O)NC3(C)CS(=O)(=O)C3)cc21` [WO2022076495, EXAMPLE 12]: the concentration for half-maximal inhibition (IC50) is 0.088 µM and 0.122 µM.
Then `CC(C)n1c(=O)n(-c2cc(OCC(F)F)ncc2F)c2ccc(C(=O)NC3(C)CCS(=O)(=O)CC3)cc21` [WO2022076495, EXAMPLE 15], with 0.0067 µM; and `CCOc1cc(-n2c(=O)n(C(C)C)c3cc(C(=O)NC4(C)CS(=O)(=O)C4)ccc32)c(F)cn1` [WO2022076495, EXAMPLE 16], with 0.031 µM; and `CC(C)n1c(=O)n(-c2cccc(OC(F)F)c2)c2cc(F)c(C(=O)NC3(C)CS(=O)(=O)C3)cc21` [WO2022076495, EXAMPLE 24], with 0.066 µM and 0.054 µM.
The value for `CC(C)n1c(=O)n(-c2cccc(OC(F)F)c2)c2cc(F)c(C(=O)NC(C)C(C)(C)O)cc21` (stereo not drawn) [WO2022076495, EXAMPLE 27] was > 10 µM.
The value for `CC(C)n1c(=O)n(-c2cccc(OC(F)F)c2)c2cc(F)c(C(=O)N[C@H]3CCC[C@@H]3O)cc21` [WO2022076495, EXAMPLE 28] was 0.779 µM.
Regarding `CC(C)n1c(=O)n(-c2cccc(OC(F)F)c2)c2cc(F)c(C(=O)N[C@H]3CCOC[C@@H]3O)cc21` [WO2022076495, EXAMPLE 29], inhibition was half-maximal at 1.26 µM (IC50).
The compound `CC(C)n1c(=O)n(-c2cccc(OC(F)F)c2)c2cc(F)c(C(=O)N[C@H]3CCCC(F)(F)[C@H]3O)cc21` [WO2022076495, EXAMPLE 30] registered an IC50 of 0.031 µM. This IC50 is about 41-fold lower than that of the compound before.
Then `CC(C)n1c(=O)n(-c2cccc(OC(F)F)c2)c2cc(F)c(C(=O)N[C@@H]3CCCC[C@H]3O)cc21` [WO2022076495, EXAMPLE 31], with 0.106 µM; and `CC(C)n1c(=O)n(-c2cccc(OC(F)F)c2)c2cc(F)c(C(=O)N[C@H]3CCCC[C@@H]3O)cc21` [WO2022076495, EXAMPLE 35], with 0.071 µM; and `CC1(NC(=O)c2cc3c(cc2F)n(-c2cccc(OC(F)F)c2)c(=O)n3C2CCOCC2)CS(=O)(=O)C1` [WO2022076495, EXAMPLE 36], with 0.019 µM.
Then `CCn1c(=O)n(-c2cccc(OC(F)F)c2)c2cc(F)c(C(=O)NC3(C)CS(=O)(=O)C3)cc21` [WO2022076495, EXAMPLE 40], with 0.194 µM.
Then `CC1(NC(=O)c2cc3c(cc2F)n(-c2cccc(OC(F)F)c2)c(=O)n3CC(F)(F)F)CS(=O)(=O)C1` [WO2022076495, EXAMPLE 43], with 0.202 µM.
Take `C[C@H](C(F)F)n1c(=O)n(-c2cccc(OC(F)F)c2)c2ccc(C(=O)NC3(C)CCS(=O)(=O)CC3)cc21` [WO2022076495, EXAMPLE 45a]: half-maximal inhibition (IC50) was put at 0.012 µM. Against the preceding compound, the IC50 is about 17-fold lower.
On to `C[C@@H](C(F)F)n1c(=O)n(-c2cccc(OC(F)F)c2)c2ccc(C(=O)NC3(C)CCS(=O)(=O)CC3)cc21` [WO2022076495, EXAMPLE 45b], for which the half-inhibitory concentration (IC50) came to 0.101 µM.
In the case of `CC[C@@H](C)n1c(=O)n(-c2cccc(OC(F)F)c2)c2ccc(C(=O)NC3(C)CS(=O)(=O)C3)cc21` [WO2022076495, EXAMPLE 46a], the IC50 was 0.081 µM.
For the compound `CC[C@H](C)n1c(=O)n(-c2cccc(OC(F)F)c2)c2ccc(C(=O)NC3(C)CS(=O)(=O)C3)cc21` [WO2022076495, EXAMPLE 46b], it took 0.092 µM to reach half-maximal inhibition (IC50).
The value for `CC(C)n1c(=O)n(-c2cccc(OC(F)F)c2)c2ccc(C(=O)NCC3(O)CCOC3)cc21` (stereo not drawn) [WO2022076495, EXAMPLE 62] was > 9.99 µM; that for `CC(C)(O)Cn1c(=O)n(-c2cccc(OC(F)F)c2)c2ccc(C(=O)NC3(C)CS(=O)(=O)C3)cc21` [WO2022076495, EXAMPLE 64] was 0.037 µM; that for `CC(n1c(=O)n(-c2cc(OC(F)F)ccc2F)c2ccc(C(=O)NC3(C)CS(=O)(=O)C3)cc21)C(C)(C)O` (stereo not drawn) [WO2022076495, EXAMPLE 65] was 0.0007 µM.
The value for `C[C@H](n1c(=O)n(-c2cc(OC(F)F)ccc2F)c2ccc(C(=O)NC3(C)CCS(=O)(=O)CC3)cc21)C(C)(C)O` [WO2022076495, EXAMPLE 66a] was 0.0011 µM; that for `C[C@@H](n1c(=O)n(-c2cc(OC(F)F)ccc2F)c2ccc(C(=O)NC3(C)CCS(=O)(=O)CC3)cc21)C(C)(C)O` [WO2022076495, EXAMPLE 66b] was 0.017 µM; that for `C[C@H](n1c(=O)n(-c2cccc(OC(F)F)c2)c2ccc(C(=O)NC3(C)CCS(=O)(=O)CC3)cc21)C(C)(C)O` [WO2022076495, EXAMPLE 67a] was 0.0016 µM.
For the compound `C[C@@H](n1c(=O)n(-c2cccc(OC(F)F)c2)c2ccc(C(=O)NC3(C)CCS(=O)(=O)CC3)cc21)C(C)(C)O` [WO2022076495, EXAMPLE 67b], the half-inhibitory concentration (IC50) stood at 0.211 µM.
The value for `C[C@H](n1c(=O)n(-c2cccc(OCC(F)F)c2)c2ccc(C(=O)NC3(C)CCS(=O)(=O)CC3)cc21)C(C)(C)O` [WO2022076495, EXAMPLE 68a] was 0.0041 µM; that for `C[C@@H](n1c(=O)n(-c2cccc(OCC(F)F)c2)c2ccc(C(=O)NC3(C)CCS(=O)(=O)CC3)cc21)C(C)(C)O` [WO2022076495, EXAMPLE 68b] was 0.0018 µM.
For `CCOc1cc(-n2c(=O)n([C@@H](C)C(C)(C)O)c3cc(C(=O)NC4(C)CCS(=O)(=O)CC4)ccc32)c(F)cn1` [WO2022076495, EXAMPLE 69a], the IC50 amounted to 0.0097 µM.
In turn, `CCOc1cc(-n2c(=O)n([C@H](C)C(C)(C)O)c3cc(C(=O)NC4(C)CCS(=O)(=O)CC4)ccc32)c(F)cn1` [WO2022076495, EXAMPLE 69b] displayed a concentration for half-maximal inhibition (IC50) of 0.0039 µM.
Then `C[C@H](n1c(=O)n(-c2cc(OC(F)(F)F)ccc2F)c2cc(F)c(C(=O)NC3(C)CCS(=O)(=O)CC3)cc21)C(C)(C)O` [WO2022076495, EXAMPLE 70a], with 0.001 µM.
`C[C@@H](n1c(=O)n(-c2cc(OC(F)(F)F)ccc2F)c2cc(F)c(C(=O)NC3(C)CCS(=O)(=O)CC3)cc21)C(C)(C)O` [WO2022076495, EXAMPLE 70b]: the half-inhibitory concentration (IC50) is 0.03 µM.
Then `C[C@H](n1c(=O)n(-c2cc(OC(F)(F)F)ccc2F)c2ccc(C(=O)NC3(C)CCS(=O)(=O)CC3)cc21)C(C)(C)O` [WO2022076495, EXAMPLE 71a], with 0.071 µM; and `C[C@@H](n1c(=O)n(-c2cc(OC(F)(F)F)ccc2F)c2ccc(C(=O)NC3(C)CCS(=O)(=O)CC3)cc21)C(C)(C)O` [WO2022076495, EXAMPLE 71b], with 0.0054 µM.
The value for `C[C@H](n1c(=O)n(-c2cc(OCC(F)F)ncc2F)c2ccc(C(=O)NC3(C)CCS(=O)(=O)CC3)cc21)C(C)(C)O` [WO2022076495, EXAMPLE 72a] was 0.0064 µM.
The value for `C[C@@H](n1c(=O)n(-c2cc(OCC(F)F)ncc2F)c2ccc(C(=O)NC3(C)CCS(=O)(=O)CC3)cc21)C(C)(C)O` [WO2022076495, EXAMPLE 72b] was 0.0066 µM; that for `C[C@H](n1c(=O)n(-c2cc(OCC(F)F)ccc2F)c2ccc(C(=O)NC3(C)CCS(=O)(=O)CC3)cc21)C(C)(C)O` [WO2022076495, EXAMPLE 73a] was 0.0026 µM.
`C[C@@H](n1c(=O)n(-c2cc(OCC(F)F)ccc2F)c2ccc(C(=O)NC3(C)CCS(=O)(=O)CC3)cc21)C(C)(C)O` [WO2022076495, EXAMPLE 73b] had an IC50 of 0.0033 µM.
The value for `C[C@H](n1c(=O)n(-c2cc(OCC(F)F)ncc2F)c2cc(F)c(C(=O)NC3(C)CCS(=O)(=O)CC3)cc21)C(C)(C)O` [WO2022076495, EXAMPLE 74a] was 0.0061 µM; that for `C[C@@H](n1c(=O)n(-c2cc(OCC(F)F)ncc2F)c2cc(F)c(C(=O)NC3(C)CCS(=O)(=O)CC3)cc21)C(C)(C)O` [WO2022076495, EXAMPLE 74b] was 0.0065 µM.
Then `C[C@H](n1c(=O)n(-c2cc(OCC(F)F)ccc2F)c2cc(F)c(C(=O)NC3(C)CCS(=O)(=O)CC3)cc21)C(C)(C)O` [WO2022076495, EXAMPLE 75a], with 0.0015 µM.
Compound `C[C@@H](n1c(=O)n(-c2cc(OCC(F)F)ccc2F)c2cc(F)c(C(=O)NC3(C)CCS(=O)(=O)CC3)cc21)C(C)(C)O` [WO2022076495, EXAMPLE 75b] had an IC50 of 0.0024 µM. Compared with the last compound, the IC50 is about 1.6-fold higher.
The compound `C[C@@H](n1c(=O)n(-c2cccc(OC(F)(F)C(F)F)c2)c2ccc(C(=O)NC3(C)CS(=O)(=O)C3)cc21)C(C)(C)O` [WO2022076495, EXAMPLE 76a] came in with an IC50 of 0.08 µM.
The compound `C[C@H](n1c(=O)n(-c2cccc(OC(F)(F)C(F)F)c2)c2ccc(C(=O)NC3(C)CS(=O)(=O)C3)cc21)C(C)(C)O` [WO2022076495, EXAMPLE 76b] had an IC50 of 0.0079 µM. Against the preceding compound, the IC50 is about 10-fold lower.
For the compound `C[C@H](n1c(=O)n(-c2cccc(OC(F)(F)C(F)F)c2)c2cc(F)c(C(=O)NC3(C)CCS(=O)(=O)CC3)cc21)C(C)(C)O` [WO2022076495, EXAMPLE 77a], the concentration for half-maximal inhibition (IC50) was 0.0056 µM.
As to `C[C@@H](n1c(=O)n(-c2cccc(OC(F)(F)C(F)F)c2)c2cc(F)c(C(=O)NC3(C)CCS(=O)(=O)CC3)cc21)C(C)(C)O` [WO2022076495, EXAMPLE 77b], 0.0098 µM corresponded to half-maximal inhibition (IC50).
`CCOc1cc(-n2c(=O)n([C@H](C)C(C)(C)O)c3cc(C(=O)NC4(C)CS(=O)(=O)C4)ccc32)c(F)cn1` [WO2022076495, EXAMPLE 78a] came in with a 50% inhibitory concentration (IC50) of 0.123 µM. Against the preceding compound, the IC50 is about 13-fold higher.
The value for `CCOc1cc(-n2c(=O)n([C@@H](C)C(C)(C)O)c3cc(C(=O)NC4(C)CS(=O)(=O)C4)ccc32)c(F)cn1` [WO2022076495, EXAMPLE 78b] was 0.013 µM; that for `CC1(NC(=O)c2ccc3c(c2)n(S(=O)(=O)c2ccccc2)c(=O)n3-c2cccc(OC(F)F)c2)CCS(=O)(=O)CC1` [WO2022076495, EXAMPLE 86] was > 9.99 µM.
